Molecular target: Cyclin-dependent kinase 6 (Homo sapiens, UniProt Q00534)
Assay: CDK6 Kinase Activity Analysis and Detection Method

Cyclin-dependent kinase 6, sequence (Q00534 whole entry): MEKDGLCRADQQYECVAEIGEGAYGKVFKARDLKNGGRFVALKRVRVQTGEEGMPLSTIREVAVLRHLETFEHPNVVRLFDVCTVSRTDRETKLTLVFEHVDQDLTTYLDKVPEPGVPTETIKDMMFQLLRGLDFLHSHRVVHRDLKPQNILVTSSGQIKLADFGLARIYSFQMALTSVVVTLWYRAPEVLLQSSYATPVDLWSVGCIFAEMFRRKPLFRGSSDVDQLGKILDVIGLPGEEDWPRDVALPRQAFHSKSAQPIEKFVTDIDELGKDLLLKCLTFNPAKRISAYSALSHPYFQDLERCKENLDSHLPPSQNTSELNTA

IC50: 127 nM
Compound: CCN1CCN(C(=O)c2ccc(Nc3ncc(F)c(-c4ccc5nc(C)sc5c4)n3)nc2)CC1 [US20230303553, Example 12]

Reference: BindingDB's records for patent US20230303553 (Jiangsu Tasly Diyi Pharmaceutical, 2023)
